Data published in article PMC7467159, “Anaerobic fixed-target serial crystallography” (IUCrJ, 2020).

Legend:
VioC = biological target: T1, VioC (Streptomyces vinaceus, UniProt Q6WZB0); experiment: room-temperature serial crystallography; type: binding; conditions: Fe(II)
T1 construct: codon-optimized, pNIC28-Bsa4, E. coli T7 LysY; His-tag cleaved with TEV protease; SEC purified; Fe(II) enzyme, microcrystals

IPNS = biological target: T2, IPNS (Aspergillus nidulans, UniProt P05326); experiment: room-temperature serial crystallography; type: binding; conditions: anaerobic, Fe(II); cysteinyl sulfur ligates Fe
T2 construct: gene ipnA; recombinant, purified as in Roach et al; Fe(II) enzyme, microcrystals
T2 sequence (P05326 1-331): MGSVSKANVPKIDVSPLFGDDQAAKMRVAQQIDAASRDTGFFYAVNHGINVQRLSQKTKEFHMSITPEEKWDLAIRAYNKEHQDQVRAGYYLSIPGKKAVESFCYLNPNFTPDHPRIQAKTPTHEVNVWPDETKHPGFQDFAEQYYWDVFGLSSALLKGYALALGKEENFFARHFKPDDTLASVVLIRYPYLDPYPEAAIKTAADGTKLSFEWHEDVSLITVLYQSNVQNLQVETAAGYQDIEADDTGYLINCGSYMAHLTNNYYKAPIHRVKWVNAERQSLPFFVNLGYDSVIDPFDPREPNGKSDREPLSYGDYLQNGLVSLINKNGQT

T1 sequence (Q6WZB0 whole entry): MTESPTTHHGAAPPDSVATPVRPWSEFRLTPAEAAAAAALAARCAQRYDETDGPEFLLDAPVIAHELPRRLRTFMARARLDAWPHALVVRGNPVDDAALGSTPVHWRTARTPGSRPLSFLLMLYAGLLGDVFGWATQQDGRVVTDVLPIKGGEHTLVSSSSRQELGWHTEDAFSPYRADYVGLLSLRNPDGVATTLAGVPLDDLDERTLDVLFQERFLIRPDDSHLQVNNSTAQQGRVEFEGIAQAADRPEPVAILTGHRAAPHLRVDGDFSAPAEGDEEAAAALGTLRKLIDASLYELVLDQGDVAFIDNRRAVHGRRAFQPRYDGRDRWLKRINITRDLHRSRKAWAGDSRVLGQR

With `O=C(O)CCC(=O)C(=O)O` [2OG] the room-temperature serial crystallography (VioC; anaerobic, L-arginine, bidentate to Fe) was “the 2OG ligates the Fe in a bidentate manner via its oxalyl group”.

For `N=C(N)NCC[C@H](O)[C@H](N)C(=O)O` [(3S)-OH-Arg], the room-temperature serial crystallography (VioC; formed in crystallo after 1 h air exposure, succinate, active site) was “the (3S)-OH-Arg is positioned to coordinate Fe via its (3S)-hydroxyl group”.

With `CC(C)[C@@H](NC(=O)[C@H](CS)NC(=O)CCC[C@H](N)C(=O)O)C(=O)O` [ACV] the room-temperature serial crystallography (IPNS) was “completed by a water molecule and the cysteinyl sulfur of the substrate ACV”.

In the case of `N=C(N)NCCC[C@H](N)C(=O)O` [L-arginine], the room-temperature serial crystallography (VioC; anaerobic, 2OG, active site) was “VioC:Fe:2OG:Arg substrate complex structure reported in this study (PDB entry 6y0n)”.

For `O=C(O)CCC(=O)O` [succinate], the room-temperature serial crystallography (VioC; formed in crystallo after 1 h air exposure, (3S)-OH-Arg, monodentate to Fe) was “succinate is bound in a monodentate manner, also trans to His168”.
